Laboratory results reported in patent publication US20220071978A1, “CANCER TREATMENT PHARMACEUTICAL COMPOSITION CONTAINING CDK INHIBITOR” (SUMITOMO DAINIPPON PHARMA CO., LTD., priority 2018, published 2022).

How the values were obtained:
[1] = system: androgen receptor (AR) phosphorylation in AILNCaP14 cell line; experiment: AR phosphorylation suppression test by immunoblotting; assay type: cell-based; conditions: 0.25 uM, 1 to 4 days
Method: (§3) After the culturing, each of 1×10^6 cells were washed with ice cooled PBS, and then treated with cell lysis buffer containing 8 M of urea, 20 mM of Tris hydrochloride (pH 7.4), 1 mM of EDTA, and protease inhibitor (Nacalai tesque, Cat no. 03969) and phosphatase inhibitor (Nacalai tesque, Cat no. 07575-51)—added 1.0% Triton X. The cell lysate was then subjected to high speed centrifugation (21,500 G) for 20 minutes at 4° C. The total amount of cell protein was quantified using a protein quantification reagent (Thermo Fisher Scientific, Cat no. 23227).
As a positive control, JQ1 (Cayman Chemical) was used.

[2] = system: AILNCaP14 cell derived subcutaneous xenograft; experiment: Tumor proliferation suppression test using a subcutaneous xenograft mouse model; assay type: in vivo; conditions: castrated NOD-SCID mice; 3 mg/kg intraperitoneally, three times every two days; vs saline negative control; p value=0.0497
Method: 2×10^6 […] 14 cells were subjected to suspension culture for 4 days using a PrimeSurface® petri dish 90 mm (product code: MS-9090X) in a phenol red free RPMI 1640 medium containing activated carbon-treated 10% fetal bovine serum (csFBS). The cultured cells that were collected, mixed with 350 uL of Matrigel (Corning® Matrigel® Basement Membrane Matrix; catalog number: 356237), and then divided into 3 equal portions were transplanted subcutaneously into three sites on NOD-SCID mice (male, 8 mice, 6 to 8 weeks old) 7 days after castration. […] The tumor volume after three days (day 7) from the third administration was measured, and the ratio of increase in tumor volume was computed in accordance with the following equation. Ratio of increase in tumor volume=tumor volume on day 7/tumor volume on day 0 As a negative control group, the same test was conducted using saline in place of an agent administered solution, and the ratio of increase in tumor volume was computed.

[3] = Body weight in the xenograft mouse test; assay type: in vivo; conditions: NOD-SCID mice; 3 mg/kg intraperitoneally, three times every two days
Method: 2×10^6 […]14 cells were subjected to suspension culture for 4 days using a PrimeSurface® petri dish 90 mm (product code: MS-9090X) in a phenol red free RPMI 1640 medium containing activated carbon-treated 10% fetal bovine serum (csFBS). The cultured cells that were collected, mixed with 350 uL of Matrigel (Corning® Matrigel® Basement Membrane Matrix; catalog number: 356237), and then divided into 3 equal portions were transplanted subcutaneously into three sites on NOD-SCID mice (male, 8 mice, 6 to 8 weeks old) 7 days after castration. After the subcutaneous transplantation, the mice were continuously raised, and an aqueous saline solution of alvocidib hydrochloride (3 mg/kg) was administered intraperitoneally to the mice for a total of three times at an interval of once every two days from the point (day 0) where the volume of tumor formed subcutaneously reached 25 mm^3 or greater and 100 mm^3 or less at one or two of the tumor transplantation sites.

[4] = system: AR nuclear translocation in AILNCaP14 cell line; experiment: AR nuclear translocation suppression test using immunofluorescent staining; assay type: cell-based; conditions: 0.25 μM, 4 days, vs DMSO control
Method: 1×10^5 cells of the […]14 cell line were seeded on a 48-well plate to which 0.5 mL/well of medium was dispensed. After 3 days of culture under the conditions of 5% CO2 at 37° C., a DMSO solution of alvocidib was diluted with a medium so that the final concentration of alvocidib would be 0.25 μM and added to each well (final volume of 1.0 mL). As a control, alvocidib-free DMSO was similarly diluted and added. After culturing for 4 days, the cells were gently washed once with PBS, and immobilized by allowing 4% paraformaldehyde phosphate buffer to act on the cells for 15 minutes. After washing the cells gently twice with PBS, the cells were incubated for 15 minutes in a 4% PBST solution. The cells were further incubated for 15 minutes in a blocking reagent (DS Pharma Biomedical, Cat no. UK-B80), and the cells were then incubated overnight at 4° C. after adding an anti-AR antibody (Santa Cruz Biotechnology Inc., Cat no. sc-816). After washing the cells gently twice with PBS, the cells were incubated for 45 minutes at room temperature after adding a secondary antibody for immunofluorescent staining (Thermo Fisher Scientific, Cat no A-21206). After washing the cells gently twice with PBS, the cells were incubated for 10 minutes after adding DAPI (Nacalai tesque, Cat no. 11034-56). After washing the cells twice for 10 minutes with 1% PBS, signals were measured with a fluorescence microscope.

[5] = system: androgen receptor (AR) phosphorylation in AILNCaP15 cell line; experiment: AR phosphorylation suppression test by immunoblotting; assay type: cell-based; conditions: 0.25 uM, 1 to 4 days
Method: as §3

AILNCaP14 cell line = experiment: Cell proliferation suppression test (crystal violet staining); assay type: cell-based
Method: (§1) 5×10^3 cells of the LNCaP cell line, 4×10^4 cells of the AILNCaP14 cell line, and 6×10^4 cells of the AILNCaP15 cell line were each seeded on a 24-well plate to which 1 mL/well of medium was dispensed. […] After culturing each cell line for an additional two weeks, the status of cell proliferation was measured by cell staining (Bommi-Reddy et al. Proc Natl Acad Sci USA. 105: 16484-16489 (2008)) using crystal violet.
(§2) The final concentrations of alvocidib were set to be 0.125, 0.25, 0.5, and 1.0 uM.

AILNCaP15 cell line = experiment: as above; assay type: cell-based
Method: as §1, §2

LNCaP cell line = experiment: as above; assay type: cell-based; conditions: final concentration of 0.625 uM or greater, two weeks culture
Method: as §1

[6] = 336 h, two weeks culture, crystal violet
[7] = final concentration of 0.25 uM or greater
[8] = final concentration of 5 uM, compared to LNCaP cell line

CN1CC[C@H](c2c(O)cc(O)c3c(=O)cc(-c4ccccc4Cl)oc23)[C@H](O)C1 [alvocidib, 2-(2-chlorophenyl)-5,7-dihydroxy-8-[(3S,4R)-3-hydroxy-1-methylpiperidin-4-yl]-4H-1-benzopyran-4-one]
phosphorylation of serine 81 of AR [1]: suppressed over time
phosphorylation of serine 210 or serine 213 of AR [1]: suppressed over time
ratio of increase in tumor volume (day 7/day 0) [2]: decreased
decrease in the body weight of mice [3]: not observed
AR nuclear translocation [4]: suppressed
phosphorylation of serine 81 of AR [5]: suppressed over time
phosphorylation of serine 210 or serine 213 of AR [5]: suppressed over time
IC50 (AILNCaP14 cell line; [6]): 125 to 250 nM
effect of suppressing cell proliferation (AILNCaP14 cell line; [7]): very potent effect of suppressing cell proliferation
IC50 (AILNCaP15 cell line; [6]): 125 to 250 nM
effect of suppressing cell proliferation (AILNCaP15 cell line; [7]): very potent effect of suppressing cell proliferation

CNC(=O)c1ccc(N2C(=S)N(c3ccc(C#N)c(C(F)(F)F)c3)C(=O)C2(C)C)cc1F [enzalutamide]
suppression of cell proliferation (LNCaP cell line): clear suppression of cell proliferation
suppression of cell proliferation (AILNCaP14 cell line; [8]): significant weaker suppression of cell proliferation
suppression of cell proliferation (AILNCaP15 cell line; [8]): significant weaker suppression of cell proliferation
